# Results: ChEMBL document CHEMBL3044621, “1-(7-Chloroquinolin-4-yl)-2-[(1H-pyrrol-2-yl)methylene]hydrazine: a potent compound against cancer” (Med Chem Res, 2012)
# What was measured:
# [1] = system: HCT-8; experiment: Cytotoxicity against Homo sapiens (human) HCT8 cells assessed as growth inhibition at 25 ug/ml after 72 hr by MTT assay; type: functional; settings: HCT-8, 72 h, read-out: GI
# [2] = system: MDA-MB-435; experiment: Cytotoxicity against Homo sapiens (human) MDA-MB-435 cells assessed as growth inhibition at 25 ug/ml after 72 hr by MTT assay; type: functional; settings: MDA-MB-435, 72 h, read-out: GI
# [3] = system: SF-295; experiment: Cytotoxicity against Homo sapiens (human) SF295 cells assessed as growth inhibition at 25 ug/ml after 72 hr by MTT assay; type: functional; settings: SF-295, 72 h, read-out: GI
# [4] = system: HCT-8; experiment: Cytotoxicity against Homo sapiens (human) HCT8 cells after 72 hr by MTT assay; type: functional, cell-based; settings: HCT-8, 72 h
# [5] = system: MDA-MB-435; experiment: Cytotoxicity against Homo sapiens (human) MDA-MB-435 cells after 72 hr by MTT assay; type: functional, cell-based; settings: MDA-MB-435, 72 h
# [6] = system: MDA-MB-435; experiment: Ratio of doxorubicin IC50 to compound IC50 for Homo sapiens (human) MDA-MB-435 cells; type: functional
# [7] = system: HL-60; experiment: Cytotoxicity against Homo sapiens (human) HL60 cells after 72 hr by MTT assay; type: functional, cell-based; settings: HL-60, 72 h
# [8] = system: SF-295; experiment: Cytotoxicity against Homo sapiens (human) SF295 cells after 72 hr by MTT assay; type: functional, cell-based; settings: SF-295, 72 h
Structure (SMILES),inhibition of growth at 25 µg/mL [1] [%],inhibition of growth at 25 µg/mL [2] [%],inhibition of growth at 25 µg/mL [3] [%],IC50 [4] [µg/mL],IC50 [5] [µg/mL],Ratio IC50 [6],IC50 [7] [µg/mL],IC50 [8] [µg/mL]
Clc1ccc2c(N/N=C/c3ncc[nH]3)ccnc2c1,34,82.6,30.2,–,–,–,–,–
COc1cccc2c1C(=O)c1c(O)c3c(c(O)c1C2=O)C[C@@](O)(C(=O)CO)C[C@@H]3O[C@H]1C[C@H](N)[C@H](O)[C@H](C)O1 [DOXORUBICIN],–,–,–,0.01,–,–,–,–
Clc1ccc2c(N/N=C/c3ccc[nH]3)ccnc2c1,100,100,100,0.441,0.117,4,0.0952,0.527
Clc1ccc2c(N/N=C/c3ccco3)ccnc2c1,53.2,68.5,61.9,–,–,–,–,–
O=[N+]([O-])c1ccc(/C=N/Nc2ccnc3cc(Cl)ccc23)s1,49,42.1,33.4,–,–,–,–,–
Clc1ccc2c(N/N=C/c3cccs3)ccnc2c1,21.1,21.6,1.03,–,–,–,–,–
O=[N+]([O-])c1ccc(/C=N/Nc2ccnc3cc(Cl)ccc23)o1,24.1,38,7.53,–,–,–,–,–
